# Where two headings read alike, the source gives them in different places.
# Key:
# back of a person = assay: Visual observation test for skin reaction (patch test); assay type: in vivo, human; settings: for skin reaction (visual): patch test, kneaded with white vaseline
# Method: A simple surfactant and surfactant/hydroquinone molecular complex crystals were kneaded with white vaseline, and used for a patch test with a patch tester (Torii Yakuhin) on the back of a person. Skin reactions such as eruption, redness, edema or papules were visually noted 48 hours after applying each patch. Skin reactions were also confirmed after 72 hours. The samples used for the patch test were as follows (where the percentage values indicate the proportions of the surfactant or molecular complex crystals).
# [1] = cited from earlier work
# [2] = Storage stability (outer appearance change) of ointments containing molecular complex crystals; assay type: physicochemical; settings: hydrophilic ointment containing 5%, 2 weeks in air at room temperature
# From the text: Storage Sstability (Outer Appearance Change) of Ointments Prepared by Combining Different Surfactant/Hydroquinone Molecular Complex Crystals with Ointment Bases (Simple Ointment, Hydrophilic Ointment)
overall evaluation of patch test (back of a person; after 48 hours),overall evaluation of patch test (back of a person; after 72 hours),skin reaction (visual) (back of a person; after 72 hours),outer appearance (coloration) of hydrophilic ointment [2],SMILES,skin reaction (visual) (back of a person; after 48 hours),solubility ([1]; in benzene),solubility ([1]; in ether),solubility ([1]; in ethyl acetate),solubility ([1]; in methanol),solubility ([1]; in water)
negative,negative,Some redness remained in the center area,,"CCCCCCCCCCCCCCCC[N+](C)(C)Cc1ccccc1.[Cl-] [No. 7, hexadecyldimethylbenzylammonium chloride]",some redness was found at the center area,,,,,
,,,Brown spots were confirmed,"Oc1ccc(O)cc1 [simple hydroquinone, 1,4-benzenediol]",,poorly soluble,readily soluble,poorly soluble,readily soluble,soluble
